This is an account of results in patent publication US8980901B2, “5-fluoro-3-phenyl-2[1-(9H-purin-6-ylamino)propyl]-3H-quinazolin-4-one and 6-fluoro-3-phenyl-2-[1-(9H-purin-6-ylamino)ethyl]-3H-quinazolin-4-one as inhibitors of human phosphatidylinositol 3-kinase delta” (Icos Corporation, priority 2004, dated 2015).

In general, IC50 refers to the concentration that inhibits the measured activity by half.

Experiment [1] relates to neutrophil. Conditions: cited from earlier work.
For experiment [2], the system named is osteoclasts. The experiment is described as follows: Osteoclast function (pit depth on dentine slices). The note with it: PI3K inhibitors 100 nM, 72 hr. It counts as cell-based, mouse. The protocol: To analyze the effect of the present PI3Kδ inhibitor compounds on osteoclasts, mouse bone marrow cells are isolated and differentiated to osteoclasts by treating the cells with Macrophage Colony Stimulating Factor^−1 (mCSF^−1) and Osteoprotegerin Ligand (OPGL) in serum-containing medium (αMEM with 10% heat-inactivated FBS; Sigma) for 3 days. On day four, when the osteoclasts had developed, the medium is removed and cells are harvested. The osteoclasts are plated on dentine slices at 10^5 cells/well in growth medium, i.e., αMEM containing 1% serum and 2% BSA with […] OPGL and 10 ng/mL mCSF^−1. After 3 hr, the medium is changed to 1% serum and 1% BSA, with or without osteopontin (25 μg/mL) and the PI3K inhibitors (100 nM). The medium is changed every 24 hours with fresh osteopontin and the inhibitors. At 72 hr, the medium is removed, and the dentine surfaces are washed with water to remove cell debris and stained with acid hematoxylin. Excess stain is washed and the pit depths are quantitated using confocal microscopy.

Experiment [3] concerns Class I PI 3-kinases. The note with it: read-out: IC50 values against each of these PI 3-kinases; cited from earlier work.

Take `O=c1cc(N2CCOCC2)oc2c(-c3ccccc3)cccc12` [LY294002]: in experiment [1], the neutrophil migration result was “block” and the superoxide release entry is “block”. The “inhibition of osteoclast activity” value in experiment [2] is on record as “inhibited osteoclast activity”. The half-inhibitory concentration (IC50) in experiment [3] was ~1000 nM.

Turning to `COC[C@H]1OC(=O)c2coc3c2[C@@]1(C)C1=C(C3=O)[C@@H]2CCC(=O)[C@@]2(C)C[C@H]1OC(C)=O` [wortmannin], in experiment [1], the neutrophil migration result is “block” and the superoxide release entry is “block”. In addition, the “inhibition of osteoclast activity” value in experiment [2] is on record as “inhibited osteoclast activity”.
